Assay: Antagonist activity at CCR1 receptor in human THP1 cells assessed as inhibition of MIP-1alpha-induced chemotaxis after 2 hrs by fluorescence assay

IC50: 68 nM
SMILES: CC(=O)Nc1ccc(O)cc1OC[C@@H](N)CN1CCC2(CC1)Cc1ccccc1O2

From BindingDB's records for doi:10.1016/j.bmcl.2012.12.095 (Astrazeneca, 2013)
